For this experiment, the target named is T1, BTK (Homo sapiens, UniProt Q06187).
T1 construct: The GM01501.3 cell line endogenously expresses BTK with a HiBiT fusion tag via CRISPR knock-in at its C-terminal region; endogenous in cells; host or cells: GM01501.3 (GM01501 cells engineered by CRISPR knock-in of HiBiT at the BTK locus)
As to the kind of experiment: BTK degradation assay using the HiBiT Method (Nano-Glo HiBiT Lytic Assay, GM01501.3 cells). It counts as cell-based. The note with it: HiBiT Degradation on GM01501.3 BTK @ 6 hours. Put shortly:
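Degradation read-out: HiBiT luminescence after lytic reagent addition, giving DC50. Compounds dosed from 10 μM in 11 half-log steps (duplicate) onto GM01501.3 cells, whose endogenous BTK carries a C-terminal HiBiT knock-in tag; 6 h exposure, 37 °C, 5% CO2.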

Structures are written as SMILES. Bounds are passed on as bounds.

T1 sequence (Q06187 whole entry, the tested form may be a part): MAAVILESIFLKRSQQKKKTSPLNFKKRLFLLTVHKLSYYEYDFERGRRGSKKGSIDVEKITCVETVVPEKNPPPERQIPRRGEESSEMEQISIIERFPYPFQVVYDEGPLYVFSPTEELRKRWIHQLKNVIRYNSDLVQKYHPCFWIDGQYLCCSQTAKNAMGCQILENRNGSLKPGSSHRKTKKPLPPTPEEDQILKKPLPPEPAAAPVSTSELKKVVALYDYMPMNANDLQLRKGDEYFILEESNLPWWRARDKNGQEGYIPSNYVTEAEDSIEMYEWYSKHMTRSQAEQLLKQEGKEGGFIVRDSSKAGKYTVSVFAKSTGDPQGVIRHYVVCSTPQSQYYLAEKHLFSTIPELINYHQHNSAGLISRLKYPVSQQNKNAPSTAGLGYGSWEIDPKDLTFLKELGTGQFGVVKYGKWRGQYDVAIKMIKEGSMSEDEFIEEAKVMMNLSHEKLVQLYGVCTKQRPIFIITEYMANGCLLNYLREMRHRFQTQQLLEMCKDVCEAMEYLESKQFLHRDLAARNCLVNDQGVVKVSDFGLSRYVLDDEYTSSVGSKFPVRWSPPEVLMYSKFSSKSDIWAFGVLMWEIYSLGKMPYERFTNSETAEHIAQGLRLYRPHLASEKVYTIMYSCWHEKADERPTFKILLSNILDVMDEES

With `Cc1cc(-c2ncnn3cc(-c4ccc(CN(C)CC(F)(F)Cc5ccc(NC6CCC(=O)NC6=O)cc5)cc4)cc23)ccc1CNC(=O)c1noc(C(C)(C)C)n1` (stereo not drawn) [Example 150, 5-tert-butyl-N-[[4-[6-[4-[[[3-[4-[(2,6-dioxo-3-piperidyl)amino]phenyl]-2,2-difluoro-propyl]-methyl-amino]methyl]phenyl]pyrrolo[2,1-f][1,2,4]triazin-4-yl]-2-methyl-phenyl]methyl]-1,2,4-oxadiazole-3-carboxamide], the DC50 was 100 to 500 nM.
Under `CC(C)(C)c1nc(C(=O)NCc2ccc(-c3ncnn4cc(-c5ccc(CN6CCC(c7ccc(NC8CCC(=O)NC8=O)cc7)CC6)cc5)cc34)cc2F)no1` (stereo not drawn) [Example 44, 5-tert-butyl-N-[[4-[6-[4-[[4-[4-[(2,6-dioxo-3-piperidyl)amino]phenyl]-1-piperidyl]methyl]phenyl]pyrrolo[2,1-f][1,2,4]triazin-4-yl]-2-fluoro-phenyl]methyl]-1,2,4-oxadiazole-3-carboxamide] stands under 100 nM; under `Cc1cc(-c2ncnn3cc(CCN4CCC(c5ccc6c(N7CCC(=O)NC7=O)nn(C)c6c5)CC4)cc23)ccc1CNC(=O)c1cn(C(C)(C)C)nn1` [Example 271], under 100 nM.
In the case of `Cc1cc(-c2ncnn3cc(N4CCN(C(=O)c5cn(CCNC(=O)c6ccc(OC7CCC(=O)NC7=O)cc6)nn5)CC4)cc23)ccc1CNC(=O)c1noc(C(C)(C)C)n1` (stereo not drawn) [Example 177, 5-(tert-butyl)-N-(4-(6-(4-(1-(2-(4-((2,6-dioxopiperidin-3-yl)oxy)benzamido)ethyl)-1H-1,2,3-triazole-4-carbonyl)piperazin-1-yl)pyrrolo[2,1-f][1,2,4]triazin-4-yl)-2-methylbenzyl)-1,2,4-oxadiazole-3-carboxamide], the DC50 was over 1000 nM.
Under `Cc1cc(-c2ncnn3cc(CCCCN4CCC(c5ccc(NC6CCC(=O)NC6=O)cc5)CC4)cc23)ccc1CNC(=O)c1noc(C(C)(C)C)n1` (stereo not drawn) [Example 130, 5-tert-butyl-N-[[4-[6-[4-[4-[4-[(2,6-dioxo-3-piperidyl)amino]phenyl]-1-piperidyl]butyl]pyrrolo[2,1-f][1,2,4]triazin-4-yl]-2-methyl-phenyl]methyl]-1,2,4-oxadiazole-3-carboxamide] stands under 100 nM; under `Cn1nc(N2CCC(=O)NC2=O)c2ccc(C3CCN(Cc4ccc(-c5cc6nccc(-c7ccc(CNC(=O)N8CC(OC(C)(C)C)C8)c(F)c7)n6n5)cc4F)CC3)cc21` [Example 167, 3-tert-butoxy-N-[[4-[2-[4-[[4-[3-(2,4-dioxohexahydropyrimidin-1-yl)-1-methyl-indazol-6-yl]-1-piperidyl]methyl]-3-fluoro-phenyl]pyrazolo[1,5-a]pyrimidin-7-yl]-2-fluoro-phenyl]methyl]azetidine-1-carboxamide], under 100 nM; under `Cc1cc(-c2ncnn3cc(-c4ccc(CN5CCC(c6c(F)cc(C7CCC(=O)NC7=O)cc6F)CC5)cc4)cc23)ccc1CNC(=O)c1noc(C(C)(C)C)n1` (stereo not drawn) [Example 10, 5-tert-butyl-N-[[4-[6-[4-[[4-[4-(2,6-dioxo-3-piperidyl)-2,6-difluoro-phenyl]-1-piperidyl]methyl]phenyl]pyrrolo[2,1-f][1,2,4]triazin-4-yl]-2-methyl-phenyl]methyl]-1,2,4-oxadiazole-3-carboxamide], under 100 nM.
`Cc1cc(-c2ncnn3cc(CCN4CCC(c5ccc6c(N7CCC(=O)NC7=O)cnn6c5)CC4)cc23)ccc1CNC(=O)c1noc(C(C)(C)C)n1` [Example 270, 5-(tert-butyl)-N-(4-(6-(2-(4-(3-(2,4-dioxotetrahydropyrimidin-1(2H)-yl)pyrazolo[1,5-a]pyridin-6-yl)piperidin-1-yl)ethyl)pyrrolo[2,1-f][1,2,4]triazin-4-yl)-2-methylbenzyl)-1,2,4-oxadiazole-3-carboxamide]: the DC50 is under 100 nM.
Under `CC(C)(C)c1nc(C(=O)NCc2ccc(-c3ncnn4cc(-c5ccc(CN6CCCC(Cc7ccc(OC8CCC(=O)NC8=O)cc7)C6)cn5)cc34)cc2F)no1` (stereo not drawn) [Example 227, 5-(tert-butyl)-N-(4-(6-(5-((3-(4-((2,6-dioxopiperidin-3-yl)oxy)benzyl)piperidin-1-yl)methyl)pyridin-2-yl)pyrrolo[2,1-f][1,2,4]triazin-4-yl)-2-fluorobenzyl)-1,2,4-oxadiazole-3-carboxamide] stands 100 to 500 nM.

Values taken from patent US20240287076A1, “COMPOUNDS FOR TARGETING DEGRADATION OF BRUTON'S TYROSINE KINASE” (BIOGEN MA INC., priority 2021, published 2024).
